The structures appear in SMILES notation.

In this experiment the test system is Acinetobacter baumannii. Kind of experiment: Antibacterial activity against Acinetobacter baumannii ATCC 17978 after 24 to 48 hrs in presence of iron chelator 2,2'-dipyridyl by CLSI method. It counts as functional.
`CC(=O)Oc1ccccc1/C=C/C(=O)Nc1nonc1C`: the MIC turned out to be 2000 µM.

For the molecule `O=C(COc1ccccc1)Nc1nonc1-c1ccccc1`, the MIC was more than 4000 µM.

On to `CC(=O)Oc1ccc(/C=C/C(=O)Nc2nonc2C)cc1OC(C)=O`, for which the MIC came to 4000 µM.

On to `Cc1nonc1NC(=O)CSc1ccccn1`, for which the MIC was 2000 µM.

With `Cc1nonc1NC(=O)COc1cccc(Cl)c1Cl`, the MIC was more than 4000 µM.

For `CCCc1nonc1NC(=O)CCc1ccccc1`, the MIC was determined as 1000 µM.

Take `Cc1nonc1NC(=O)c1cccc2ccccc12`: the MIC worked out at 1000 µM.

As for `Cc1nonc1NC(=O)CSc1ccc2ccccc2c1`, the MIC is more than 4000 µM.

For the molecule `Cc1nonc1NC(=O)CSC1=NCCS1`, the minimum inhibitory concentration (MIC) is 2000 µM.

As to `Cc1nonc1NC(=O)CN(CC(=O)Nc1nonc1C)c1ccccc1`, the MIC is more than 4000 µM.

As for `O=C(CCc1ccccc1)Nc1nonc1-c1ccccc1`, the MIC is more than 4000 µM.

With `COc1ccc(CCC(=O)Nc2nonc2C)cc1`, the MIC was determined as 2000 µM.

`Cc1nonc1NC(=O)CSc1ncccn1`: the MIC was 4000 µM.

Regarding `O=C(/C=C/c1ccccc1)Nc1nonc1-c1ccccc1`, the MIC is more than 4000 µM.

Take `Cc1nonc1NC(=O)/C=C/c1ccc(O)c(O)c1`: the MIC was more than 4000 µM.

For `O=C(CSc1ccccc1)Nc1nonc1-c1ccccc1`, the MIC is more than 4000 µM.

On to `Cc1ccnc(SCC(=O)Nc2nonc2C)n1`, for which the MIC is 4000 µM.

Take `Cc1nonc1NC(=O)CSc1nc2ccccc2[nH]1`: the MIC came to 2000 µM.

On to `Cc1nonc1NC(=O)COc1ccccc1`, for which the MIC was 2000 µM.

As for `Cc1nonc1NC(=O)/C=C/c1ccccc1O`, the MIC is 500 µM.

Turning to `CCCc1nonc1NC(=O)/C=C/c1ccccc1`, the MIC was more than 4000 µM.

Take `Cc1nonc1NC(=O)CSc1ccccc1`: the MIC was found to be 1000 µM.

Consider `Cc1nonc1NC(=O)COc1cccc2ccccc12`, for which the MIC was more than 4000 µM.

For `Cc1nonc1NC(=O)CSc1nc2ccccc2s1`, the MIC is more than 4000 µM.

As to `Cc1nonc1NC(=O)COc1ccccc1Cl`, the minimal inhibitory concentration (MIC) was more than 4000 µM.

With `Cc1nonc1NC(=O)CCc1ccccc1`, the MIC came to 1000 µM.

For `O=C(COc1ccccc1Cl)Nc1nonc1-c1ccccc1`, the minimum inhibitory concentration (MIC) is more than 4000 µM.

`Cc1nonc1NC(=O)/C=C/c1ccccc1`: the MIC turned out to be 1000 µM.

As for `Cc1nonc1NC(=O)COc1ccc(Cl)c(Cl)c1`, the MIC came out at 1000 µM.

As to `Cc1nonc1NC(=O)COc1ccc(Cl)cc1`, the MIC came out at 1000 µM.

For `Cc1nonc1NC(=O)c1ccc2ccccc2c1`, the MIC was determined as 4000 µM.

These data come from ChEMBL document CHEMBL4177606, “Synthesis of novel 1,2,5-oxadiazoles and evaluation of action against Acinetobacter baumannii” (2017).
